Experimental data as given in US20240226072A1 (Stichting Het Nederlands Kanker Instituut, priority 2022, published 2024).
Where two headings read alike, the source gives them in different places.

Assays:
[1] = input of human simulation, cited from earlier work
[2] = in vivo; conditions: male, mouse; for Kp at 24 h: Brain-to-plasma ratio
Description: The Jevtana (10 mg/mL) solution contains 0.26 mg/mL polysorbate 80 and 15% (w/v) ethanol, and is adjusted to pH 2-6 with citric acid. […] The stock solution was further diluted 5-fold with water to reach a 2.5 mg/mL dosing solution for oral administration. The vehicle solution only consists of polysorbate 80, ethanol and water (1:1:8, v/v/v). […] All dosing solutions were prepared freshly on the day of the experiment.
At the termination time point of 24 hours, mice were anesthetized using an isoflurane evaporator with 3% isoflurane with 0.8 L/min air and 0.3 L/min oxygen. A final blood sample was taken using cardiac puncture, using Eppendorf tubes previously prepared with heparin as an anticoagulant. Subsequently, the anesthetized mice were sacrificed by cervical dislocation and the tissues of interest were collected. Brain, liver, spleen, kidney, small intestine, and testis were collected. The small intestinal content (SIC) was separately collected by removing this from the small intestinal tissue, which was subsequently rinsed with saline to remove possibly fecal residue. The blood samples were centrifuged at 9,000×g for 6 minutes at 4° C., and the plasma fraction was isolated and stored at −30° C. until analysis. Brain, liver, spleen, kidney, small intestinal tissue, SIC, and testis were homogenized in a FastPrep-24™ 5G homogenizer (M. P. Biomedicals, Santa Ana, CA, USA) for 1 min with 1, 3, 1, 2, 3, 2, and 1 mL of 2% (w/v) BSA in Milli-Q water, respectively. Until analysis of the samples, they were all stored at −30° C.
Pharmacokinetic parameters were estimated by non-compartmental analysis using the software package of PK solutions 2.0.2 (SUMMIT, Research Service). The area under the curve (AUC) of the plasma-concentration time curve for all the compounds was calculated using the linear trapezoidal rule without extrapolating to infinity. The peak plasma concentration (Cmax) and the time to reach peak plasma concentration (Tmax) were obtained directly from the individual raw data. For the statistical analysis and the graphs GraphPad Prism 9 (GraphPad Software Inc., La Jolla, CA, USA) was used. The statistics for the comparison of multiple groups were calculated with the one-way analysis of variance (ANOVA), whereas Sidak's post hoc correction was performed. Log-transformation before statistical analysis was applied, when variances within the groups were not homogeneously distributed. Differences were considered statistically significant when P<0.05. All data are presented as geometric mean±SD.
The last parameter is in many cases the most useful, as it takes the overall exposure into account.

[3] = Plasma pharmacokinetics and tissue distribution 2 h after oral cabazitaxel 10 mg/kg with vehicle or 25 mg/kg ritonavir in wild-type, Oatp1a/1b−/−, Oatp1a/1b/2b1−/−, OATP1B1- and OATP1B3-transgenic mice; type: in vivo; conditions: for CLiver / Cbrain / Pbrain, brain accumulation per h / SIC (% of dose), small intestinal content / AUC(0-t) / Kp at 2 h: cabazitaxel 10 mg/kg oral; for CLiver / Cbrain / Pbrain, brain accumulation per h / SIC (% of dose), small intestinal content / Kp at 2 h: 2 h; for enhancement of AUC0-2h by ritonavir: ritonavir 25 mg/kg compared to respective vehicle group; for AUC(0-t) / Kp at 2 h: male, FVB, mouse, po, 10 mg/kg; for AUC(0-t): plasma, read-out: AUC0-2 h; for Kp at 2 h: brain/plasma, read-out: Brain-to-plasma ratio
Description: All animals were fasted 2 to 3 hours prior to the start of the experiment to minimize variation in absorption after oral administration. […] Subsequently, cardiac puncture was performed with a heparinized needle and syringe collecting a final blood sample. […] All samples were stored at −30° C. until analysis.
Differences were considered statistically significant when P<0.05. All data are presented as geometric mean±SD.

[4] = Cyp3aXAV vs Cyp3a−/− (FVB background)
[5] = Cyp3aXAV vs Cyp3a−/− (FVB background), 24 h
[6] = OATP1B1-transgenic mice, ritonavir 25 mg/kg oral
[7] = OATP1B1-transgenic mice, vehicle
[8] = OATP1B3-transgenic mice, ritonavir 25 mg/kg oral
[9] = OATP1B3-transgenic mice, vehicle
[10] = Oatp1a/1b/2b1−/− mice, ritonavir 25 mg/kg oral
[11] = Oatp1a/1b−/− mice, ritonavir 25 mg/kg oral

CO[C@H]1C(=O)[C@]2(C)[C@@H](OC)C[C@H]3OC[C@@]3(OC(C)=O)[C@H]2[C@H](OC(=O)c2ccccc2)[C@]2(O)C[C@H](OC(=O)[C@H](O)[C@@H](NC(=O)OC(C)(C)C)c3ccccc3)C(C)=C1C2(C)C [cabazitaxel]
CLint, Intrinsic clearance ([1]; calculated from CL 48.5 and QH 80, sources (17, 18)): 123.17 L/h
IIV CL [1]: 38.8 CV%
Lag-time on Ka ([1]; observed for indinavir PK when co-administered with ritonavir, source (27)): 0.483 h
Ka, First order absorption rate constant ([1]; reported for docetaxel, source (26)): 0.7 h⁻¹
IIV K12 ([1]; source (17)): 84.0 CV%
IIV K13 ([1]; source (17)): 64.2 CV%
IIV K31 ([1]; source (17)): 28.2 CV%
IIV VI ([1]; source (17)): 93.4 CV%
IOV CL ([1]; source (17)): 19.4 CV%
IOV V1 ([1]; source (17)): 45.3 CV%
K12 ([1]; source (17)): 2.48 h⁻¹
K13 ([1]; source (17)): 4.84 h⁻¹
K21 ([1]; source (17)): 0.604 h⁻¹
K31 ([1]; source (17)): 0.0266 h⁻¹
V1 ([1]; source (17)): 26 L
Kp at 24 h ([2]; Cyp3aXAV (FVB background), po, 10 mg/kg): 1.52
reduced AUC0-24h [2, 4]: 88.8 fold
reduced Cmax [2, 4]: 12.1 fold
decrease of liver concentration [2, 5]: 341.2 fold
reduction of brain exposure [2, 5]: 167.6 fold
Kp at 24 h ([2]; Cyp3a−/− (FVB background), po, 10 mg/kg): 0.231
Tmax ([2]; Cyp3a−/− (FVB background), po, 10 mg/kg, Tmax): 2.08 h
Kp at 24 h ([2]; wild-type FVB, po, 10 mg/kg): 1.17
CLiver [3, 6]: 22966 pmol/g
Cbrain [3, 6]: 275 pmol/g
Pbrain, brain accumulation per h [3, 6]: 0.031 h⁻¹
SIC (% of dose), small intestinal content [3, 6]: 1.93 % of dose
CLiver [3, 7]: 3150 pmol/g
Cbrain [3, 7]: 59.0 pmol/g
Pbrain, brain accumulation per h [3, 7]: 0.014 h⁻¹
SIC (% of dose), small intestinal content [3, 7]: 1.43 % of dose
CLiver [3, 8]: 21217 pmol/g
Cbrain [3, 8]: 245 pmol/g
Pbrain, brain accumulation per h [3, 8]: 0.032 h⁻¹
SIC (% of dose), small intestinal content [3, 8]: 1.06 % of dose
CLiver [3, 9]: 2777 pmol/g
Cbrain [3, 9]: 55.8 pmol/g
Pbrain, brain accumulation per h [3, 9]: 0.014 h⁻¹
SIC (% of dose), small intestinal content [3, 9]: 1.00 % of dose
enhancement of AUC0-2h by ritonavir ([3]; Oatp1a/1b/2b1−/− mice): 2.4 fold
CLiver [3, 10]: 21464 pmol/g
Cbrain [3, 10]: 262 pmol/g
Pbrain, brain accumulation per h [3, 10]: 0.029 h⁻¹
SIC (% of dose), small intestinal content [3, 10]: 1.67 % of dose
CLiver ([3]; Oatp1a/1b/2b1−/− mice, vehicle): 2979 pmol/g
Cbrain ([3]; Oatp1a/1b/2b1−/− mice, vehicle): 49.4 pmol/g
Pbrain, brain accumulation per h ([3]; Oatp1a/1b/2b1−/− mice, vehicle): 0.013 h⁻¹
SIC (% of dose), small intestinal content ([3]; Oatp1a/1b/2b1−/− mice, vehicle): 2.22 % of dose
enhancement of AUC0-2h by ritonavir ([3]; Oatp1a/1b−/− mice): 3.0 fold
CLiver [3, 11]: 20747 pmol/g
Cbrain [3, 11]: 323 pmol/g
Pbrain, brain accumulation per h [3, 11]: 0.035 h⁻¹
SIC (% of dose), small intestinal content [3, 11]: 0.91 % of dose
CLiver ([3]; Oatp1a/1b−/− mice, vehicle): 2758 pmol/g
Cbrain ([3]; Oatp1a/1b−/− mice, vehicle): 45.2 pmol/g
Pbrain, brain accumulation per h ([3]; Oatp1a/1b−/− mice, vehicle): 0.014 h⁻¹
SIC (% of dose), small intestinal content ([3]; Oatp1a/1b−/− mice, vehicle): 0.32 % of dose
AUC(0-t) ([3]; OATP1B1-transgenic (Oatp1a/1b−/− background), OATP1B1-transgenic mice, ritonavir 25 mg/kg oral): 7.91 µM·h
AUC(0-t) ([3]; OATP1B1-transgenic (Oatp1a/1b−/− background), OATP1B1-transgenic mice, vehicle): 3.7 µM·h
AUC(0-t) ([3]; OATP1B3-transgenic (Oatp1a/1b−/− background), OATP1B3-transgenic mice, ritonavir 25 mg/kg oral): 6.57 µM·h
AUC(0-t) ([3]; OATP1B3-transgenic (Oatp1a/1b−/− background), OATP1B3-transgenic mice, vehicle): 3.51 µM·h
AUC(0-t) ([3]; Oatp1a/1b/2b1−/−, Oatp1a/1b/2b1−/− mice, ritonavir 25 mg/kg oral): 6.8 µM·h
AUC(0-t) ([3]; Oatp1a/1b/2b1−/−, Oatp1a/1b/2b1−/− mice, vehicle): 2.88 µM·h
AUC(0-t) ([3]; Oatp1a/1b−/−, Oatp1a/1b−/− mice, ritonavir 25 mg/kg oral): 7.89 µM·h
AUC(0-t) ([3]; Oatp1a/1b−/−, Oatp1a/1b−/− mice, vehicle): 2.62 µM·h
Kp at 2 h [3, 7]: 0.054
Kp at 2 h [3, 9]: 0.067
Kp at 2 h ([3]; Oatp1a/1b/2b1−/− mice, vehicle): 0.064
Kp at 2 h ([3]; Oatp1a/1b−/− mice, vehicle): 0.064
